In US12304909B2, “Compounds and their use in therapy” (IMPERIAL COLLEGE INNOVATIONS LIMITED, priority 2018, dated 2025):

Legend:
Rat hepatocyte half life = type: in vitro ADME, Sprague-Dawley rats; conditions: pooled cryopreserved rat hepatocytes, pH 7.4; pooled male Sprague-Dawley rat hepatocytes; read-out: Rat Hepatocyte t ½
Method: (§1) Example Compound 1 was tested for metabolic stability in rat metabolic assays using hepatocytes derived from pooled male Sprague-Dawley rats. Comparative Examples 2, 3 and 4 were also tested in the same assay. Compounds having good metabolic stability in the assay are expected to be especially useful as agents for preventing and/or treating cancer, by having a long half-life in human patients.
Frozen pooled rat hepatocytes obtained from LifeTechnologies were thawed and purified according to the manufacturer's instructions. The test compound (4 mM) in DMSO was diluted with acetonitrile to provide a 100 μM sub-stock then further diluted with pH7.4 Krebs-Henseleit buffer supplemented with CaCl2), NaHCO3, HEPES, fructose and glycine) to provide a 2 μM working solution. 25 μL of working solution was incubated at 37° C., treated with 25 μL of rat hepatocyte suspension (containing 1×10^6 cells/mL) and incubated at 37° C. with 5% CO2 level at 95% relative humidity. Wells were incubated for an appropriate time (0, 15, 30, 45, 60 and 75 min) then quenched with 250 μL of acetonitrile containing reference standards diltiazem, 7-ethoxycoumarin and propranolol). The plates were shaken, sonicated for 5 min then cooled to 4° C. until all sampling was complete. All plates were centrifuged at 4000 rpm for 20 min to pellet the debris. 110 μl supernatant was diluted 110 μL water and quantitated using LC-MS/MS.
The results were used to calculate the % Remaining of the test compound at time point t=100×˜[(AUC at time point t)/(AUC at T=0)]. A linear regression curve was fitted to a plot of natural logarithm (In) of AUC against time. The T-half (min)=0.693/slope

Rat half life in vivo = conditions: plasma; rat oral half-life; male Sprague-Dawley rats, 3 mg/kg oral gavage; read-out: Rat or mouse t ½ (rat) (converted)
Method: Example Compound 1, and Comparative Examples 2 and 3 were tested for metabolic stability in male Sprague-Dawley rats. Comparative Example 5 was tested for metabolic stability in male CD-1 mice. Compounds having good metabolic stability in rats or mice are expected to be especially useful as agents for preventing and/or treating cancer, by having a long half-life in human patients.
Male Sprague-Dawley rats were fasted for 4 h before dosing. Groups of 3 rats were dosed with Example Compound 1, Comparative Example 2, or Comparative Example 3 • (i) intravenously at a dose of 1 mg/kg using a dose volume 2 mL/kg where the animals are anaesthetized using 3% v/v isoflurane:oxygen mixture and dose administered through lateral tail vein; or • (ii) orally by gavage (OG) at a dose of 3 mg/kg using a dose volume 5 ml/kg to conscious animals.
˜100 μL blood sample were collected after 5 min, 15 min, 30 min, 1 h, 2 h, 4 h, 8 h and 24 h (intravenous) and 15 min, 30 min, 1 h, 2 h, 4 h, 8 h and 24 h (oral) and transferred to heparinized capillary tubes, and subsequently into 0.5 mL microcentrifuge tubes. All blood samples are processed for plasma by centrifugation at 1640×g for 5 min at 4° C. within half an hour of collection. Plasma samples were stored at −20° C. until all samples were collected. All samples were mixed with ice-cold acetonitrile containing an internal standard (IS) in 1:4 v/v and centrifuged at 4000 rpm for 15 min at 15° C. Supernatant was then half diluted in water and loaded for LCMS/MS analysis. Analyte peak area/IS peak area (the ratio) was considered for further data analysis as described below.
Calibration curve and QC samples: Compound stock was prepared and further serial dilutions were carried out. The samples were spiked in blank plasma (1:50). Calibration curve ranged from 1 to 1250 ppb. Three quality control samples were also prepared-high QC (HQC), Mid QC (MQC and Low QC (LQC).

[1] = Human liver microsomes half life; type: in vitro ADME; conditions: pH 7.4, read-out: Human liver microsomes t ½
Method: as §1, with “an assay” for “rat metabolic assays”, “human liver microsomes.” for “hepatocytes derived from pooled male Sprague-Dawley rats.”, “3, 4, 5” for “3”, “6” for “4”, “patients” for “patients.”
Frozen human liver microsomes obtained from Corning, USA (cat #452117) were thawed and diluted with 100 mM of pH 7.4 phosphate buffer to give a 1 mg/ml solution. An NADPH regeneration system (NRS) was prepared as a solution containing 13 mM NADP, 33 mM glucose-6-phosphate, 33 mM MgCl2 and 4U/mL glucose-6-phosphate dehydrogenase in 100 mM of pH7.4 phosphate buffer. The test compound (4 mM) in DMSO was diluted with acetonitrile to provide a 100 μM sub-stock then further diluted with 100 mM of pH7.4 phosphate buffer to provide a 2 μM working solution. The liver microsome solution and NRS were incubated at 37° C. before use. To each well of the test plate was dispensed 60 μL of buffer, 50 μL of test compound solution and 10 μL of NRS. A reaction was initiated by addition of 40 μL of liver microsome solution. Wells were incubated for an appropriate time (0, 5, 10, 20, 30 and 60 min) then quenched with 300 μL of acetonitrile containing reference standards atenolol, propranolol, diclofenac, verapamil). All plates were centrifuged at 3500 rpm for 20 min at 15° C. to pellet the debris. 110 μL supernatant was diluted 110 μL water and quantitated using LC-MS/MS.
The results were used to calculate the % Remaining of the test compound at time point t=100×˜[(AUC at time point t)/(AUC at T=0)]. A linear regression curve was fitted to a plot of natural logarithm (In) of AUC against time. The T-half (min)=0.693/slope.

CNC(=O)c1nn(C)c(C)c1CCOc1cc(F)ccc1-c1ccc2ncc(CCN)n2c1 [Comparative Example 2, 4-(2-{2-[3-(2-aminoethyl)imidazo[1,2-a]pyridin-6-yl]-5-fluorophenoxy}ethyl)-N,1,5-trimethyl-1H-pyrazole-3-carboxamide]
half-life at 1 µM (Rat hepatocyte half life): 1.35 h | half-life (Rat half life in vivo): 8.3 h | half-life at 0.625 µM [1]: 1.95 h

CNCCc1cnc2ccc(-c3ccc(F)cc3OCCc3c(C)nn(C)c3C)cn12 [Comparative Example 3, [2-(6-{4-fluoro-2-[2-(1,3,5-trimethyl-1H-pyrazol-4-yl)ethoxy]phenyl}imidazo[1,2-a]pyridin-3-yl)ethyl](methyl)amine]
half-life at 1 µM (Rat hepatocyte half life): 0.767 h | half-life (Rat half life in vivo): 4.5 h | half-life at 0.625 µM [1]: 0.617 h

Cc1c(CCOc2cc(Cl)ccc2-c2ccc3ncc(CCN)n3c2)c(C(=O)N(C)C)nn1C [Example Compound 1, 4-(2-{2-[3-(2-aminoethyl)imidazo[1,2-a]pyridin-6-yl]-5-chlorophenoxy}ethyl)-N,N,1,5-tetramethyl-1H-pyrazole-3-carboxamide]
half-life at 1 µM (Rat hepatocyte half life): 1.33 h | half-life (Rat half life in vivo): 7.1 h | half-life at 0.625 µM [1]: 1.12 h
